Square brackets hold non-standard residues; d marks the D form. Peptide text beside a SMILES is read from it. * marks the point of attachment. Nle = CCCC[C@H](N)C(=O)O; Cbz = O=C(OCc1ccccc1)*
How the values were obtained:
[1] = test system: 293T tumor cells expressing V-GFP-TfR-OVA; assay: In vitro cross-presentation of treated tumor cells by DC to OT-I T cells (CFSE dilution); format: cell-based, human; settings: tumor cells treated as in Example 2, irradiated; FIG. 3
Protocol: (§1) The autophagy inhibitor […] (3-MA) and the autophagy inducer rapamycin were used to modulate autophagy and observe their effect on human 293T tumor cells expressing V-GFP-TfR-OVA fusion (a peptide containing mutated ubiquitin, GFP (green fluorescent protein), the transmembrane domain of transferrin receptor and chicken ovalbumin). In addition 10 mM NH4Cl was used to inhibit lysosome mediated protein degradation. Cells expressing V-GFP-TfR-OVA were either untreated, treated with 10 mM 3-MA for 24 hours, treated with 10 mM 3-MA and 1 μM Velcade for 24 hours, 50 nM rapamycin for 24 hours, 50 nM rapamycin and 1 μM Velcade for 24 hours, 10 mM NH4Cl for 24 hours, or with 1 μM Velcade and 10 mM NH4Cl for 24 hours. Cell lysates were prepared by resuspending pelleted cells in SDS containing sample lysis buffer and subjected to western blot analysis with anti-GFP antibody.
(§2) 293T tumor cells expressing V-GFP-TfR-OVA were treated as described in Example 2, and used as the source of antigens for cross-presentation in vitro after irradiation (15,000 rad). One million tumor cells were incubated with two million DC for 6 hours before the addition of CFSE labeled naïve T cells from OT-I transgenic mice that recognize peptides derived from OVA protein. The OT-I division as indicated by dilution of CFSE label was used as the readout.

[2] = test system: human 293T tumor cells expressing V-GFP-TfR-OVA fusion; assay: Western blot of fusion protein with anti-GFP antibody; format: cell-based; settings: for full-length and short fragments of fusion proteins: 10 mM 3-MA, 1 μM Velcade, 10 mM NH4Cl, compared to untreated control cells
Protocol: as §1

[3] = test system: F10 melanoma cells; assay: Secretion of DRibbles by tumor cells treated with proteasome inhibitor (microscopy); format: cell-based, mouse; settings: 5 μg/ml, 24 hours; FIG. 1A
Protocol: To prepare tumor-derived DRibbles, one T-150 flask of cultured tumor cells at about 80% confluence (about 30 million cells per flask) were treated for 24 hours with reversible proteasome inhibitor MG132 (5 μg/ml) or ALLN (5 μg/ml) to block proteasome-mediated degradation of ubiquitinated proteins. […] Culture supernatant was collected in a 50 ml conical tube 48 hours later, and whole tumor cells and large cell debris removed by a low speed centrifugation (250 g for 10 minutes) (FIG. 1B). The resulting supernatant was further centrifuged at a high speed (10,000 g for 15 minutes) to pellet DRibbles. The pellets (containing the DRibbles, see FIG. 1C) were washed once by re-suspending in PBS (20 ml) and pelleting at high speed as above. The washed pellets were resuspended in 300 μl PBS (10 μl DRibble=1 million cells) and snap frozen in liquid nitrogen and kept at −80° C. in small aliquots until use.

[4] = under refrigeration; cited from earlier work
[5] = oral administration; cited from earlier work
[6] = test system: RMA tumor cells; assay: Priming of gag-specific CD8 T cells by RMA tumor cells, intracellular IFN-γ; format: in vivo, mice; settings: RMA cells treated 5 μM 24 hours
Protocol: Seven days later, spleen cells were restimulated with either irrelevant D^b binding peptide or the dominant epitope of gag in the presence of blocker of ER/Golgi (brefeldin A) for 6 hours. The percentage of CD8 T cells produced intracellular IFN-γ was then determined by intracellular staining and flow cytometry analysis with antibodies against CD3, CD8, and IFN-γ.

[7] = test system: 293T cells expressing V-GFP-TfR-OVA fusion protein; assay: Western blot of fusion protein after HSP90 inhibitor and Velcade; format: cell-based, human; settings: 1 μM Velcade 6 hours; 10 μM 17-AAD 16 hour
[8] = test system: LC3; assay: Western blot analysis of LC-3 (autophagy marker); format: cell-based, human; settings: 1 μM overnight, 293T cells
Protocol: To confirm whether Velcade induced autophagy, Western blot analysis of LC-3 was performed. LC3 is an autophagy marker; it converts from its LC3-I-nonlipidated form to the PE-conjugated form LC3-II. 293T were treated with 1 μM Velcade overnight and total cell lysates were subjected to Western blot analysis with anti-LC3 polyclonal antibody.

[9] = test system: 293T tumor cells; assay: Fluorescence microscopy of GFP-OVA / GFP-LC3 transfected cells; format: cell-based, human; settings: 1 μM
Protocol: 293T tumor cells were transfected with plasmids encoding Ub-M-GFP-OVA, GFP-LC3 fusion protein, or GFP-LC3 and tdTomato-Ub proteins. Transfected cells were treated with 1 μM Velcade 24 hours later. GFP-OVA or GFP-LC3 fusion proteins were used to visualize the antigens or autophagy membrane in the DRibbles using fluorescence microscopy. Co-tranfection of GFP-LC3 and tdTomato-Ub fusion plasmids was used to visualize accumulation of ubiquitinated DRiPs inside LC3 decorated DRibbles.

[10] = test system: 293T cell lines expressing GFP-OVA fusion proteins; assay: Western blot of DRibble lysates; format: cell-based, human
Protocol: Lysates (10 μg) were prepared from DRibbles generated from 293T cell lines expressing different versions of GFP-OVA fusion proteins after Velcade treatment. The lysates were probed with antibodies against GFP, LC3, calrecticulin, HSP90α (cytosolic), and ubiquitin.

[11] = test system: 293T cells expressing V-GFP-TfR-OVA fusion protein; assay: Cross-presentation of HSP90 inhibitor treated cells; format: cell-based, human; settings: Velcade added to 17-AAD treated cells
Protocol: as §2
Cross-presentation is analyzed as described in Example 5.

Cn1cnc(=N)c2ncn([C@@H]3O[C@H](CO)[C@@H](O)[C@H]3O)c21 [3-MA, 3-methyladenosine]
cross-presentation (OT-I division, CFSE dilution) [1]: severely curtailed
full-length and short fragments of fusion proteins ([2]; 24 hours): both full-length and short fragments of fusion proteins were increased

CCCC[C@@H](C=O)NC(=O)[C@H](CC(C)C)NC(=O)[C@H](CC(C)C)NC(C)=O [ALLN, N-Acetyl-Leu-Leu-norleucinal] (Ac-Leu-Leu-[Nle]-aldehyde)
formation of prenuclear vacuoles and secretion of DRibbles [3]: induced formation of prenuclear vacuoles and secretion of DRiPs containing blebs (DRibbles)

O.O=P1(N(CCCl)CCCl)NCCCO1 (stereo not shown) [Cyclophosphamide, 2-[bis(2-chloroethyl)amino]tetrahydro-2H-1,3,2 oxazaphosphorine 2-oxide monohydrate]
stability of reconstituted solution [4]: six
bioavailability [5]: greater than 75%

CC(C)C[C@@H](C=O)NC(=O)[C@H](CC(C)C)NC(=O)[C@H](CC(C)C)NC(=O)OCc1ccccc1 [MG-132, carbobenzyloxy-L-leucyl-L-leucyl-L-leucinal] (Cbz-Leu-Leu-Leu-aldehyde)
percentage of IFN-γ-producing CD8 T cells, background ([6]; background): 0.29%
percentage of IFN-γ-producing CD8 T cells ([6]; spleen cells seven days later restimulated with dominant epitope of gag): 1.74%

Cl.N [NH4Cl]
cross-presentation (OT-I division, CFSE dilution) [1]: moderate increase of cross-presentation
full-length and short fragments of fusion proteins ([2]; 24 hours): even greater stabilizing effect of shorter fragments
antigen / protein level detected by Western blot ([2]; as restated with the cross-presentation results): increased protein level

CC(C)C[C@H](NC(=O)[C@H](Cc1ccccc1)NC(=O)c1cnccn1)B(O)O [Velcade, N-pyrazinecarbonyl-L-phenylalanine-L-leucineboronic acid]
short-fragments of GFP-TfR-OVA fusion proteins [7]: dramatically increased
autophagy induction (LC3-I and LC3-II) [8]: induced autophagy in 293T cells
formation of punctate structures [9]: led to formation of cell-associated punctate positive for GFP-OVA or GFP-LC3
amount of short fragments ([2]; 1 μM Velcade in the presence of 50 nM rapamycin, 24 hours): slightly increased the amount of short fragments
GFP-OVA fusion protein in DRibbles [10]: resulted in large amount GFP-OVA fusion protein in the DRibbles
DRiPs and cross-presentation [11]: rescued DRiPs but not cross-presentation

Reference: US8652836B2, “Defective ribosomal products in blebs (DRibbles) and methods of use to stimulate an immune response” (Providence Health System, priority 2005, dated 2014)
